This note sets out measurements from paper PMC12406195, “Understanding the Modes of Action of β‑Ketoiminato Iridium(III) Complexes in Cancer Cells” (Inorganic Chemistry, 2025).

Holding throughout (type): cell-based, human
Assay [1] relates to MDA-MB-231 cells. Nature of the assay: Chemosensitivity (MTT cell viability) assay, MDA-MB-231. To be noted: for IC50: n = 9. As for the experimental part: (§1) All cytotoxicity assays were conducted using human cell lines: breast adenocarcinomas (MDA-MB-231 and MCF-7), pancreatic carcinoma (MIA PaCa-2) and non-cancerous epithelial retinal (ARPE-19) cell lines. All cell lines were routinely maintained as monolayer cultures in appropriate complete media:
(§2) MCF-7, MIA PaCa-2 and ARPE-19 in high glucose DMEM and MDA-MB-231 in RPMI-1640, and both media were supplemented with 10% FBS, 1 mM sodium pyruvate, 2 mM L-glutamine, and 1% pen-strep. All cells were initially grown in T-25 or T-75 flasks at 37 °C and 5% CO2. Before chemosensitivity studies, cell monolayers were passaged using trypsin-EDTA (0.05%) and diluted to a concentration of 1 x 10^4 cells/mL (or 4 x 10^4 cells mL for 24 h assays). All assays were conducted in 96-well plates, in which 100 µL of the cell suspension was added for 24 h at 37 °C and 5% CO2, and then 100 µL of compound/medium dilutions for a further 96 h (or 24 h). All compound stocks were made using sterile DMSO at 100 mM before dilution, and a maximum of 0.1% DMSO was used in each assay. After incubation, 3-(4,5-dimethylthiazol-2-yl)-2,5-diphenyltetrazolium bromide (20 µL, 5 mg/mL in PBS) was added to each well and incubated for 3 h at 37°C and 5% CO2. All solutions were then aspirated, DMSO (150 µL) added to each well, gently mixed, and the absorbance was measured at 540 nm using a ClarioStar spectrophotometer microplate reader. Results were plotted on a logarithmic scale, and the half maximal inhibitory concentration (IC50) was determined from a triplicate of triplicate repeats (n = 9) and reported as an IC 50 ± Standard Deviation (SD).

For a further assay, the system named is MCF-7 cells. Briefly: Chemosensitivity (MTT cell viability) assay, MCF-7. As for the experimental part: as §1, §2
For a further assay, the system named is ARPE-19 cells. Nature of the assay: Chemosensitivity (MTT cell viability) assay, noncancerous ARPE-19. The note with it: ARPE-19 noncancerous, 96 h, n = 9. As for the experimental part:
The cytotoxicity of the compounds against the cancer cell lines was also compared to the noncancerous retinal epithelial cell line, ARPE-19, to determine the possibility of cancer cell selectivity. […]
as §1, §2

For assay [2], the system named is MDA-MB-231 cells. Nature of the assay: Reactive oxygen species (H2DCFDA fluorescence). The note with it: MDA-MB-231, 100 μM, 4 h, compared to nontreated control. How it is done: To measure the degree of ROS produced in MDA-MB-231 cells, 2′,7′-dichlorodihydrofluorescein diacetate (H2DCFDA), a cell-permeable fluorescent dye, was used. H2DCFDA is deacetylated by esterases and consecutively oxidized by intracellular ROS into a fluorescent molecule, dichlorofluorescein (DCF).
MDA-MB-231 cells at 4000 cells/well were seeded into a black clear -bottom 96-well plate using phenol-red free complete RMPI medium, and incubated for 48 h. The cells were treated with 100 µM of 1 for 4 h alongside an untreated sample (control). 2′,7′ -dichlorodihydrofluorescein diacetate (H 2DCFDA, 20 μM final concentration in PBS ) was added for 45 min. […] Fluorescence images were obtained using a Zeiss Observer 7 inverted microscope at excitation at 488 nm and emission at 509 […]
Plasmid DNA (200 ng, pBOS -H2B-GFP, BD Biosciences) was incubated overnight at room temperature with 1 or CDDP at concentrations between 100 and 400 μM in double -distilled H2O (20 μL total volume). […] The experiment was conducted in two biological replicates, and the band intensities were quantified and analyzed using ImageJ software. […]
MDA-MB-231 cells were seeded in 6-well plates at a density of 1.2 × 10⁵ cells/well. […] The samples were then placed on microscope slides, covered with a coverslip, and their morphology was examined using a fluorescence microscope (Eclipse TS100, Nikon). […]

Turning to “[Cp*Ir(C16H14NO)(PTA)](PF6) [Compound 1]”, the IC50 (commonly the concentration that gives 50% inhibition) in the assay on MDA-MB-231 cells [1] (MDA-MB-231, 24 h) came to 18 ± 1 µM; with MDA-MB-231 cells [1] (MDA-MB-231, 96 h), 6.3 ± 0.7 µM; with MCF-7 cells (MCF-7, 96 h, n = 9) it was 48 ± 3 µM; in the assay with ARPE-19 cells, 10.4 ± 0.7 µM. The “Selectivity index (SI)” value with MDA-MB-231 cells [1] (MDA-MB-231 compared to ARPE-19, 96 h) was found to be 1.7; with MCF-7 cells (MCF-7 compared to ARPE-19, 96 h), 0.2. Besides, the “ROS generation (DCF fluorescence)” value with MDA-MB-231 cells [2] is “increase in fluorescence”.
